Measured values reported in US6911443B2 (Bayer Aktiengesellschaft, priority 2000, dated 2005).

biological target: T1, human Syk (GST-Syk) (Homo sapiens, UniProt P43405); experiment: Syk tyrosine kinase inhibitory assay; assay type: biochemical; conditions: in vitro; compounds as yielded by solid phase synthesis, purity about 40 to 90%
T1 construct: A cDNA fragment encoding human Syk openreading frame was cloned; made in house; host or cells: Sf21 insect cells (baculovirus, transfer vector pAcG2T)
Source text: [Syk Tyrosine Kinase Inhibitory Assay]
(1) Preparation of Syk Protein
A cDNA fragment encoding human Syk openreading frame was cloned from total RNA of human Burkitt's lymphoma B cell lines, Raji (American Type Culture Collection), with the use of RT-PCR method. The cDNA fragment was inserted into pAcG2T (Pharmingen, San Diego, Calif.) to construct a baculovirus transfer vector. Then the vector, together with the linearized baculovirus (BaculoGold™, Pharmingen), was used to transfect Sf21 cells (Invitrogen, San Diego, Calif.).
Generated recombinant baculovirus was cloned and amplified in Sf21 cells. Sf21 cells were infected with this amplified high titer virus to produce a chimeric protein of Syk kinase fused by glutathione-S-transferase (GST).
The resulting GST-Syk was purified with the use of glutathione column (Amersham Pharmacia Biotech AB, Uppsala, Sweden) according to the manufacturer's instruction.
(2) Synthesize of a Peptide
Next, a peptide fragment of 30 residues including two tyrosine residues, […], was synthesized by a peptide synthesizer. The N-terminal of the fragment was then biotinylated to obtain biotinylated activation loop peptide (AL).
(3) The Measurement of Syk Tyrosine Kinase Activity
All reagents were diluted with the Syk kinase assay buffer (50 mM Tris-HCl (pH 8.0), 10 mM MgCl2, 0.1 mM Na3VO4, 0.1% BSA, 1 mM DTT). First, a mixture (35 μl) including […] of GST-Syk and 0.5 μg of AL was put in each well in 96-well plates. Then 5 μl of a test compound in the presence of 2.5% dimethylsulfoxide (DMSO) was added to each well. To this mixture was added […] (10 μl) to initiate the kinase reaction. The final reaction mixture (50 μl) consists of 0.65 nM GST-Syk, 3 μM AL, 30 μM ATP, a test compound, 0.25% DMSO, and a Syk kinase assay buffer.
The mixture was incubated for 1 hr at room temperature, and the reaction was terminated by the addition of 120 μl of termination buffer (50 mM Tris-HCl (pH 8.0), 10 mMEDTA, 500 mM NaCl, 0.1% BSA). The mixture was transferred to streptavidin-coated plates and incubated for 30 min at room temperature to combine biotin-AL to the plates. After washing the plates with Tris-buffered saline (TBS) (50 mM Tris-HCl (pH 8.0), 138 mM NaCl, 2.7 mM KCl) containing 0.05% Tween-20 for 3 times, 100 μl of antibody solution consisting of 50 mM Tris-HCl (pH 8.0), 138 mM NaCl, 2.7 mM KCl, 1% BSA, 60 ng/ml anti-phosphotyrosine monoclonal antibody, 4G10 (Upstate Biotechnology), which is labeled with europium by Amersham Pharmacia's kit in advance, was added and incubated at room temperature for 60 min. After washing, 100 μl of enhancement solution (Amersham pharmacia Biotech) was added and then time-resolved fluorescence was measured by multi-label counter ARVO (Wallac Oy, Finland) at 340 nm for excitation and 615 nm for emission with 400 msec of delay and 400 msec of window.

| SMILES | Activity grade (IC50 class) |
| --- | --- |
| COc1ccc(-c2cc3ncnn3c(Nc3ccc4ncccc4c3)n2)cc1OC [Example 9-18] | C-D |

same assay, conditions: in vitro; compounds as yielded by solid phase synthesis, purity about 40 to 90%; read-out: Activity grade (IC50 class)

| SMILES | IC50 [nM] |
| --- | --- |
| COC(=O)[C@H](Cc1ccc(O)cc1)Nc1nc(-c2ccc(OC)c(OC)c2)cc2nccn12 [Example 9-2] | 2000 to 10000 |
| COc1ccc(-c2cc3nccn3c(NCCN(C)C)n2)cc1OC [Example 9-3] | 2000 to 10000 |
| COc1ccc(-c2cc3nccn3c(NCC(O)CO)n2)cc1OC (centres unmarked) [Example 9-4] | 500 to 2000 |
| COc1ccc(-c2cc3nccn3c(N[C@@H](CO)Cc3ccccc3)n2)cc1OC [Example 9-5] | 500 to 2000 |
| COc1ccc(-c2cc3nccn3c(SC3C=CCCC3)n2)cc1OC (centres unmarked) [Example 9-6] | < 500 |
| COc1ccc(-c2cc3nccn3c(SCC3CC3)n2)cc1OC [Example 9-7] | < 500 |
| C=CCSc1nc(-c2ccc(OC)c(OC)c2)cc2nccn12 [Example 9-8] | < 500 |
| COc1ccc(-c2cc3nccn3c(SC(C)C)n2)cc1OC [Example 9-9] | < 500 |
| COc1ccc(-c2cc3nccn3c(NCc3ccccc3)n2)cc1OC [Example 9-10] | 500 to 2000 |
| CCNc1nc(-c2ccc(OC)c(OC)c2)cc2nccn12 [Example 9-11] | < 500 |
| CNc1nc(-c2ccc(OC)c(OC)c2)cc2nccn12 [Example 9-12] | 500 to 2000 |
| COc1ccc(-c2cc3nccn3c(N3CCc4ccccc43)n2)cc1OC [Example 9-13] | 500 to 2000 |
| COc1ccc(-c2cc3ncnn3c(Nc3cccc(N)n3)n2)cc1OC [Example 9-16] | < 500 |
| COc1ccc(-c2cc3ncnn3c(Nc3ncccc3O)n2)cc1OC [Example 9-17] | 2000 to 10000 |
| COc1ccc(-c2cc3ncnn3c(Nc3ccc(/C=C/C(=O)O)cc3)n2)cc1OC [Example 9-19] | < 500 |
| COc1ccc(-c2cc3ncnn3c(Nc3ccc(CCC(=O)O)cc3)n2)cc1OC [Example 9-20] | < 500 |
| COc1ccc(-c2cc3nccn3c(Nc3ccc(CCC4=NC(C)(C)CO4)cc3)n2)cc1OC [Example 9-22] | < 500 |

| SMILES | IC50 [nM] |
| --- | --- |
| CCOC(=O)Cc1ccc(Nc2nc(-c3ccc(OC)c(OC)c3)cc3nccn23)cc1 [Example 9-23] | < 500 |
| COC(=O)CCc1ccc(Nc2nc(-c3ccc(OC)c(OC)c3)cc3nccn23)cc1 [Example 9-24] | < 500 |
| COC(=O)CCCc1ccc(Nc2nc(-c3ccc(OC)c(OC)c3)cc3nccn23)cc1 [Example 9-25] | 500 to 2000 |
| COc1ccc(-c2cc3nccn3c(Nc3ccc(CCN4C(=O)c5ccccc5C4=O)cc3)n2)cc1OC [Example 9-26] | 500 to 2000 |
| COc1ccc(-c2cc3nccn3c(SCc3ccccc3Cl)n2)cc1OC [Example 9-27] | < 500 |
| CCOC(=O)CCSc1nc(-c2ccc(OC)c(OC)c2)cc2nccn12 [Example 9-28] | < 500 |
| COc1ccc(-c2cc3nccn3c(N(CCO)Cc3ccccc3)n2)cc1OC [Example 9-29] | < 500 |
| COc1ccc(-c2cc3nccn3c(N3CCOCC3)n2)cc1OC [Example 9-30] | 2000 to 10000 |
| COc1ccc(-c2cc3nccn3c(NC3CCC(C(=O)O)CC3)n2)cc1OC (centres unmarked) [Example 9-31] | 500 to 2000 |
| COc1ccc(-c2cc3nccn3c(N3CCN(Cc4ccc5c(c4)OCO5)CC3)n2)cc1OC [Example 9-32] | 2000 to 10000 |
| COc1ccc(-c2cc3nccn3c(N3CCN(c4ccccc4)CC3)n2)cc1OC [Example 9-33] | 2000 to 10000 |
| COc1ccc(-c2cc3nccn3c(N3CCN(c4ccccc4OC)CC3)n2)cc1OC [Example 9-34] | 2000 to 10000 |
| COc1ccc(-c2cc3nccn3c(N3CCN(c4ccc([N+](=O)[O-])cc4)CC3)n2)cc1OC [Example 9-35] | 2000 to 10000 |
| COc1ccc(-c2cc3nccn3c(N3CCN(c4ccc(C(C)=O)cc4)CC3)n2)cc1OC [Example 9-36] | 2000 to 10000 |
| COc1ccc(-c2cc3nccn3c(N3CCN(C)CC3)n2)cc1OC [Example 9-37] | 500 to 2000 |
| COc1ccc(-c2cc3nccn3c(N3CCN(c4ccccn4)CC3)n2)cc1OC [Example 9-38] | 500 to 2000 |
| COc1ccc(-c2cc3nccn3c(N3CCN(c4ccc(Cl)cc4)CC3)n2)cc1OC [Example 9-39] | 2000 to 10000 |
